Source: patent US11649227B2, “Allosteric chromenone inhibitors of phosphoinositide 3-kinase (PI3K) for the treatment of disease” (Petra Pharma Corporation, priority 2020, dated 2023)

How the values were obtained:
[1] = molecular target: human full length PIK3CA H1047R mutant (p110α/p85α complex) (Homo sapiens (Human), UniProt P42336, H1047R); assay: PI3K-Alpha kinase (PIK3CA) activity, H1047R mutant, Transcreener ADP2 FI assay; details: PI3K-α (PIK3CA) H1047R mutant, biochemical
Experimental: (§1) PI3K-Alpha kinase (PIK3CA) activity, wild-type and H1047R mutant and determining IC50 values for inhibitors
(§2) Recombinant, catalytically active human full length PIK3KA Wild-type and H1047R mutant were purchased as 1:1 complex of N-terminal 6×his tagged p110<(catalytic) and untagged p85<(regulatory subunit) from EMD Millipore Sigma (cat. no. 14-602M and 14-792M, respectively). The enzyme stocks were diluted to 5× stocks in buffer (20 mM HEPES pH 7.4, 100 mM NaCl, 0.5 mM EGTA, 0.01% triton-x-100) just before use. PIP2diC8 (Avanti Polar Lipids Inc., cat. no. 850185) or phosphoinositol-4,5-bisphosphate with phosphoserine (PIP2:PS) membrane (Thermo Fisher Scientific, cat. no. PV5100) was used as lipid substrates. PIP2diC8 lyophilized powder and PIP2:PS (1:19) membrane stock (1 mM in PIP2) were separately dissolved in milliQ water to a concentration of 250 uM and stored in −20° C. 10 mM stocks of compounds were serially diluted (3×) in neat DMSO and stored in a dessicator at room temperature. 5× compound stocks in 25% DMSO were prepared fresh from neat DMSO stocks. Wild-type (WT) and H1047R mutant protein, along with buffer components (except ATP), were incubated with or without compound at 27° C. for 1h. After incubation, the reaction was initiated by the addition of 5 uL of 125 uM ATP. A typical assay mixture (25 uL) comprised 40 mM HEPES buffer, pH 7.4, 25 mM MgCl2, 0.01% v/v triton-X-100, 5% v/v DMSO, 20 mM NaCl, 1-5 nM wt or H1047R, 25 uM ATP, and 50 uM PTP2diC8 or PTP2 in membrane. The reaction was allowed to proceed until about […] (2.5 uM ADP) after which time, 10 uL of reaction mixture was quenched with 25 uL of transcreener reagent (Transcreener ADP2 FI assay kit, BellBrook labs, Cat. No. 3013). The contents were incubated at rt for 1h and fluorescence was measured using a plate reader (Paradigm, Molecular Devices). The same assay was also run at pH 6.0 or 6.4 using MOPS buffer (Fisher BioReagents, CAS 1132-61-2). A calibration curve was generated under identical buffer conditions with varying ADP amounts. Using that, the observed fluorescence was converted to uM ADP. A plot between [ADP] and log[I] yielded the dose-response curves that enabled the calculation of IC50s.

[2] = molecular target: human full length PIK3CA Wild-type (p110α/p85α complex) (Homo sapiens (Human), UniProt P42336); assay: PI3K-Alpha kinase (PIK3CA) activity, wild-type, Transcreener ADP2 FI assay; details: PI3K-α (PIK3CA) wild-type, biochemical
Sequence of human full length PIK3CA Wild-type (p110α/p85α complex) (P42336 whole entry): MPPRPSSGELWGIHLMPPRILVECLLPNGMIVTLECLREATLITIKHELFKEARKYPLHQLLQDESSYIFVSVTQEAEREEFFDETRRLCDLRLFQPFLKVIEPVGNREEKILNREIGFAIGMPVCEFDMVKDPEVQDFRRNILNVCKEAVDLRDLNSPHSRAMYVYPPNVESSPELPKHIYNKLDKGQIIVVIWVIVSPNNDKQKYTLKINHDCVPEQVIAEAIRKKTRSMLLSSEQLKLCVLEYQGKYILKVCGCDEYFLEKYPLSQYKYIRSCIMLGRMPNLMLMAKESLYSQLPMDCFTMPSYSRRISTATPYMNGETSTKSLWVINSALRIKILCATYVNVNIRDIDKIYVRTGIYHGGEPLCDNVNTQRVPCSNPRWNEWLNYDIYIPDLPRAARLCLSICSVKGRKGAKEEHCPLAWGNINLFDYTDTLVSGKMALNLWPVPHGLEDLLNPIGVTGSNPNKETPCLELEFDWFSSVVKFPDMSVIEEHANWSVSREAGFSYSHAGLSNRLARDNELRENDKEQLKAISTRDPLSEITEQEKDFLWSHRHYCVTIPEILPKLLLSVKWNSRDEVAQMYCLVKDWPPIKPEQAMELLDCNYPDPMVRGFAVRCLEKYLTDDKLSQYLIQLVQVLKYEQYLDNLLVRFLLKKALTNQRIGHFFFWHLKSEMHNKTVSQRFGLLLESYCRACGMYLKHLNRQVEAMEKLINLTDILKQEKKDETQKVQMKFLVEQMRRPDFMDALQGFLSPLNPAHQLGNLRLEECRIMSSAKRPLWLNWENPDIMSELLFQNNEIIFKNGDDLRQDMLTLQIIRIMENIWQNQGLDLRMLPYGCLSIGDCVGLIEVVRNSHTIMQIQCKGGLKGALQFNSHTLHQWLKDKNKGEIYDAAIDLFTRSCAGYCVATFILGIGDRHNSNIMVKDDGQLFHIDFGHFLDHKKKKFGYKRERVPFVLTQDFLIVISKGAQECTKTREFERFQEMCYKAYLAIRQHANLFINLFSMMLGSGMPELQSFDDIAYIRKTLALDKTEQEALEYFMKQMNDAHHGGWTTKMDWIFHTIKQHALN
Sequence of human full length PIK3CA Wild-type (p110α/p85α complex) (P27986 whole entry partner): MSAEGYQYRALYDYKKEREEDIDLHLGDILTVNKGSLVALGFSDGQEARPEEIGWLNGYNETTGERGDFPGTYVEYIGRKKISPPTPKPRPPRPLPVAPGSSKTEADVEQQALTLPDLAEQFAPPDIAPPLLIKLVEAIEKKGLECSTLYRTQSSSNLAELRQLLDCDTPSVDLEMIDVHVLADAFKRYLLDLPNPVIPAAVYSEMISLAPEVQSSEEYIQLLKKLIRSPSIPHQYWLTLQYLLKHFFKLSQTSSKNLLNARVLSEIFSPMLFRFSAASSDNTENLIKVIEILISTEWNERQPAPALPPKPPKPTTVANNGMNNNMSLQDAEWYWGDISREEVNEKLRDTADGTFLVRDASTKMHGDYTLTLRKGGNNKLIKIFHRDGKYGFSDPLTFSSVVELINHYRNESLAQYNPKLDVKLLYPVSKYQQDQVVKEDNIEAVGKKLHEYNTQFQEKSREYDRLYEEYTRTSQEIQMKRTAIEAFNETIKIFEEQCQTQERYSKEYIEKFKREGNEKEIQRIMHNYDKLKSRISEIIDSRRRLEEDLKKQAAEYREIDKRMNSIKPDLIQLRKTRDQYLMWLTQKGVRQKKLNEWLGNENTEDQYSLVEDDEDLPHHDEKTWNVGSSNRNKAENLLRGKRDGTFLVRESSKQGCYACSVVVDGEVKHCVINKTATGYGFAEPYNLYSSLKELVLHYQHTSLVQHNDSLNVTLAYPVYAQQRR
Experimental: as §1, §2

Sequence of human full length PIK3CA H1047R mutant (p110α/p85α complex) (P42336 whole entry H1047R): as the sequence (P42336 whole entry) above, with H1047R counted along it
Sequence of human full length PIK3CA H1047R mutant (p110α/p85α complex) (P27986 whole entry partner): as the sequence (P27986 whole entry partner) above

IC50 [1] [µM]	IC50 [2] [µM]	Structure (SMILES)
< 0.5	1 to 5	Cc1cc(C(C)Nc2ccccc2C(=O)O)c2oc(N3CCC(C)(C)CC3)c(C3CC3)c(=O)c2c1 (single isomer, unassigned) [Example 51, 2-[1-[3-Cyclopropyl-2-(4,4-dimethyl-1-piperidyl)-6-methyl-4-oxo-chromen-8-yl]ethyalmino]benzoic acid]
< 0.5	0.5 to 1	CCC1(c2ccccc2)CN(c2cc(=O)c3cc(C)cc(C(C)Nc4ccccc4C(=O)O)c3o2)C1 (single isomer, unassigned) [Example 212, 2-[1-[2-(3-Ethyl-3-phenyl-azetidin-1-yl)-6-methyl-4-oxo-chromen-8-yl]ethylamino]benzoic acid 2,2,2-trifluoroacetic acid]
0.5 to 1	1 to 5	COC12CC(C1)N(c1cc(=O)c3cc(C)cc(C(C)Nc4ccccc4C(=O)O)c3o1)C2 (single isomer, unassigned) [Example 112, 2-[1-[2-(4-Methoxy-2-azabicyclo[2.1.1]hexan-2-yl)-6-methyl-4-oxo-chromen-8-yl]ethylamino]benzoic acid]
< 0.5	< 0.5	Cc1c(N2Cc3ccccc3C2)oc2c(C(C)Nc3ccccc3C(=O)O)cc(F)cc2c1=O (single isomer, unassigned) [Example 324, 2-[1-(6-Fluoro-2-isoindolin-2-yl-3-methyl-4-oxo-chromen-8-yl)ethylamino]benzoic acid]
< 0.5	1 to 5	Cc1cc(C(C)Nc2ccccc2C(=O)O)c2oc(N3CC4(CCN4c4ccccc4)C3)cc(=O)c2c1 (single isomer, unassigned) [Example 203, 2-[1-[6-Methyl-4-oxo-2-(1-phenyl-1,6-diazaspiro[3.3]heptan-6-yl)chromen-8-yl]ethylamino]benzoic acid 2,2,2-trifluoroacetic acid]
0.5 to 1	5 to 10	Cc1cc(C(C)Nc2ccccc2C(=O)O)c2oc(N3CCC(C(F)(F)F)CC3)cc(=O)c2c1 (stereo not drawn) [Example 74, 2-[1-[6-Methyl-4-oxo-2-[4-(trifluoromethyl)-1-piperidyl]chromen-8-yl]ethylamino]benzoic acid]
> 10	5 to 10	Cc1cc(C(C)Nc2cccc(F)c2C(=O)O)c2oc(N3Cc4ccc(F)cc4C3)c(C)c(=O)c2c1 (single isomer, unassigned) [Example 244, 2-Fluoro-6-[1-[2-(5-fluoroisoindolin-2-yl)-3,6-dimethyl-4-oxo-chromen-8-yl]ethylamino]benzoic acid]
0.5 to 1	0.5 to 1	Cc1cc(C(C)Nc2ccccc2S(=O)(=O)C(F)F)c2oc(N3CCC(C)(C)CC3)cc(=O)c2c1 (stereo not drawn) [Example 38, 8-[1-[2-(Difluoromethylsulfonyl)anilino]ethyl]-2-(4,4-dimethyl-1-piperidyl)-6-methyl-chromen-4-one]
< 0.5	1 to 5	Cc1cc(C(C)Nc2ccccc2C(=O)O)c2oc(N3Cc4ccccc4C3)c(C)c(=O)c2c1 (single isomer, unassigned; isomer 1) [Example 265, 2-[1-(2-Isoindolin-2-yl-3,6-dimethyl-4-oxo-chromen-8-yl)ethylamino]benzoic acid, Isomer 1]
< 0.5	< 0.5	Cc1cc(C(C)Nc2ccc(F)cc2C(=O)O)c2oc(N3Cc4ccc(F)cc4C3)cc(=O)c2c1 (single isomer, unassigned) [Example 349, 5-Fluoro-2-[1-[2-(5-fluoroisoindolin-2-yl)-6-methyl-4-oxo-chromen-8-yl]ethylamino]benzoic acid]
< 0.5	0.5 to 1	CC(Nc1ccccc1C(=O)O)c1cc(C(F)(F)F)cc2c(=O)cc(N3Cc4ccc(F)cc4C3)oc12 (single isomer, unassigned) [Example 335, 2-[1-[2-(5-Fluoroisoindolin-2-yl)-4-oxo-6-(trifluoromethyl)chromen-8-yl]ethylamino]benzoic acid]
< 0.5	0.5 to 1	Cc1c(N2Cc3ccccc3C2)oc2c(C(C)Nc3ccccc3C(=O)O)cc(C(F)(F)F)cc2c1=O (single isomer, unassigned) [Example 348, 2-[1-[2-Isoindolin-2-yl-3-methyl-4-oxo-6-(trifluoromethyl)chromen-8-yl]ethylamino]benzoic acid]
1 to 5	1 to 5	Cc1cc(C(C)Nc2ccccc2C(=O)O)c2oc(N3CCOC(c4ccc(S(C)(=O)=O)cc4)C3)cc(=O)c2c1 (stereo not drawn) [Example 85, 2-[1-[6-Methyl-2-[2-(4-methylsulfonylphenyl)morpholin-4-yl]-4-oxo-chromen-8-yl]ethylamino]benzoic acid]
1 to 5	5 to 10	Cc1cc(C(C)Nc2ccccc2C(=O)O)c2oc(N3CCC4(CC3)Cn3nc(C(=O)N(C)C)cc3CO4)cc(=O)c2c1 (stereo not drawn) [Example 107, 2-[1-[2-[2-(Dimethylcarbamoyl)spiro[4,7-dihydropyrazolo[5,1-c][1,4]oxazine-6,4′-piperidine]-1′-yl]-6-methyl-4-oxo-chromen-8-yl]ethylamino]benzoic acid]
< 0.5	0.5 to 1	Cc1c(N2Cc3ccc(F)cc3C2)oc2c(C(C)Nc3ccccc3C(=O)O)cc(F)cc2c1=O (single isomer, unassigned) [Example 319, 2-[1-[6-Fluoro-2-(5-fluoroisoindolin-2-yl)-3-methyl-4-oxo-chromen-8-yl]ethylamino]benzoic acid]
0.5 to 1	1 to 5	Cc1cc(C(C)Nc2ccccc2-c2noc(=O)[nH]2)c2oc(N3CCC(C)(C)CC3)cc(=O)c2c1 (stereo not drawn) [Example 45, 3-[2-[1-[2-(4,4-Dimethyl-1-piperidyl)-6-methyl-4-oxo-chromen-8-yl]ethylamino]phenyl]-4H-1,2,4-oxadiazol-5-one]
0.5 to 1	1 to 5	Cc1cc(C(C)Nc2ccc(Cl)nc2C(=O)O)c2oc(N3Cc4ccccc4C3)cc(=O)c2c1 (stereo not drawn) [Example 296, 6-Chloro-3-[1-(2-isoindolin-2-yl-6-methyl-4-oxo-chromen-8-yl)ethylamino]pyridine-2-carboxylic acid]
1 to 5	1 to 5	Cc1cc([C@@H](C)Nc2ccnnc2C(=O)O)c2oc(N3CCC(C)(C)CC3)cc(=O)c2c1 [Example 251]
0.5 to 1	1 to 5	Cc1cc(C(C)Nc2cccc3cc(C(=O)O)sc23)c2oc(N3CCC(C)(C)CC3)cc(=O)c2c1 (stereo not drawn) [Example 46, 7-[1-[2-(4,4-Dimethyl-1-piperidyl)-6-methyl-4-oxo-chromen-8-yl]ethylamino]benzothiophene-2-carboxylic acid]
> 10	> 10	COC12CC(C1)N(c1cc(=O)c3cc(C)cc(C(C)Nc4ccccc4C(=O)O)c3o1)C2 (single isomer, unassigned) [Example 111, 2-[1-[2-(4-Methoxy-2-azabicyclo[2.1.1]hexan-2-yl)-6-methyl-4-oxo-chromen-8-yl]ethylamino]benzoic acid]

Structure (SMILES)	IC50 [1] [µM]	IC50 [2] [µM]
Cc1cc(C(C)Nc2ccccc2C(=O)O)c2oc(N3C4CCCC3C4)cc(=O)c2c1 (single isomer, unassigned; isomer 2) [Example 425, 2-[1-[2-(6-Azabicyclo[3.1.1]heptan-6-yl)-6-methyl-4-oxo-chromen-8-yl]ethylamino]benzoic acid, Isomer 2]	< 0.5	1 to 5
